Data: patent US9421209B2, “Kinase modulators” (Rhizen Pharmaceuticals SA, priority 2009, dated 2016)

Tests used:
P110 δ/Pi3K δ = P110 δ/Pi3K δ (Homo sapiens, UniProt O00329); assay: Fluorescent (HTRF) determination of PI3K enzyme activity, δ isoform; type: biochemical; design: inhibition: dose or concentration left out as unconfirmed
From the text: Assay 1: Fluorescent determination of PI3Kinase Kinase enzyme activity
Phosphoinositide 3 kinases (PI3K) belong to a class of lipid kinases that play a critical role in the regulation of several key cellular processes. The PI3K are capable of phosphorylating the 3-hydroxy position of phosphoinositols thereby generating second messengers involved in downstream signalling events. The homogenous time resolved fluorescence (HTRF) assay allows detection of 3,4,5-triphosphate (PIP3) formed as a result of phosphorylation of phosphotidylinositol 4,5-biphosphate (PIP2) by PI3K isoforms such as α, β, γ or δ.
PI3K isoform activity for α, β, γ or δ was determined using a PI3K human HTRF™ Assay Kit (Millipore, Billerica, Mass.) with modifications. All incubations were carried out at room temperature. […] After the initial incubation, 5 μl/well of 400 μM ATP was added and incubated for an additional 30 minutes. Reaction was terminated by adding 5 μl/well stop solution (Millipore, Billerica, Mass.). Five microliters of detection mix (Millipore, Billerica, Mass.) were then added to each well and was incubated for 6-18 h in the dark. […] Data were analyzed using Graphpad Prism (Graphpad software; San Diego Calif.) for IC50 determination. Percent inhibition was calculated based on the values for the blank and enzyme controls.

P110 δ/Pi3K δ, sequence (O00329 whole entry, canonical isoform): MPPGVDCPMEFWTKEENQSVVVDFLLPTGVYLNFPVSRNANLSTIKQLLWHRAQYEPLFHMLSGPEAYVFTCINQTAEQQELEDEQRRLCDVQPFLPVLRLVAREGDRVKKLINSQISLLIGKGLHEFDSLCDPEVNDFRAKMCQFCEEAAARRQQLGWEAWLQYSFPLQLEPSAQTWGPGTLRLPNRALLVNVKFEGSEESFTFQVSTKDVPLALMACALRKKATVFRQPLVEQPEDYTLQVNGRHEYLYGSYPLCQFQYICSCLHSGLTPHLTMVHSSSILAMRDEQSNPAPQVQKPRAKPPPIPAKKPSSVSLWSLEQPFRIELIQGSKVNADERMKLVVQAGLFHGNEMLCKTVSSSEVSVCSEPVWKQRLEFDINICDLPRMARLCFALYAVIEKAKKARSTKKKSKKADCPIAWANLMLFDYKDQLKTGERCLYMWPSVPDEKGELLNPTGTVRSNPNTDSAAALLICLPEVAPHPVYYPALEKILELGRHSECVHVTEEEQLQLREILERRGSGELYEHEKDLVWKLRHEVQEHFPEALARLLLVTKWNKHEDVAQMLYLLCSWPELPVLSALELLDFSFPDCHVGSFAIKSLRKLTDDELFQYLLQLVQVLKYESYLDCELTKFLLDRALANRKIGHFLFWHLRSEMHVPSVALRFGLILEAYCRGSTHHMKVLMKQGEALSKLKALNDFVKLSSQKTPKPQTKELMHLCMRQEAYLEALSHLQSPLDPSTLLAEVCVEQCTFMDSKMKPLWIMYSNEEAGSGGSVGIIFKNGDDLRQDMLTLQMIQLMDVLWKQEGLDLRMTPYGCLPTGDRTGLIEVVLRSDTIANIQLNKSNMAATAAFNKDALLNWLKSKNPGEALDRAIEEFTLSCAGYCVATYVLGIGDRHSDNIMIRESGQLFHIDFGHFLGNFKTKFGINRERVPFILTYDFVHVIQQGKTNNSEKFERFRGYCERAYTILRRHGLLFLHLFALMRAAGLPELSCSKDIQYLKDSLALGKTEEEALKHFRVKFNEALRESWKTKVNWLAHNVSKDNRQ
P110 δ/Pi3K δ, sequence (P27986 whole entry partner, canonical isoform): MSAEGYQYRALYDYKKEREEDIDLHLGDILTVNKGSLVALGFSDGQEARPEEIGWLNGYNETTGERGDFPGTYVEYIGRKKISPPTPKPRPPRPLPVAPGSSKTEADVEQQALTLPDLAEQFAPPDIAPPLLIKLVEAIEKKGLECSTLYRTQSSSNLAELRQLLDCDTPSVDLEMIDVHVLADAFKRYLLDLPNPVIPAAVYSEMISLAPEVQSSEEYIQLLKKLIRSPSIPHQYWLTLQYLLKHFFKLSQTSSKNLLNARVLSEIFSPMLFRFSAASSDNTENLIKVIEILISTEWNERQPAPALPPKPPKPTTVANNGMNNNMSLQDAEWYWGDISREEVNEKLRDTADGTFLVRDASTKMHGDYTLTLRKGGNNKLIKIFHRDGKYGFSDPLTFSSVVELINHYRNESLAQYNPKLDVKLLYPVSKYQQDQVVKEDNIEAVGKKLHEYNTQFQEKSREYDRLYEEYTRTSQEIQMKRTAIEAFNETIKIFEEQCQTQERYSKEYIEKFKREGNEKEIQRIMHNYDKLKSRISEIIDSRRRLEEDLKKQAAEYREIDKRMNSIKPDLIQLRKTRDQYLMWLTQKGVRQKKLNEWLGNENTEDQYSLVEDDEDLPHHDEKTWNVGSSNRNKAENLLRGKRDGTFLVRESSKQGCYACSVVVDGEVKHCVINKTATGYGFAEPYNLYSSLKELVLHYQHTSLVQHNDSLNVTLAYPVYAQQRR

melting point [°C]	inhibition (P110 δ/Pi3K δ) [%]	inhibition at 1 µM (P110 δ/Pi3K δ) [%]	IC50 (P110 δ/Pi3K δ; read-out: P110 δ/Pi3K δ IC 50 nM) [nM]	SMILES
274 to 278	< 50	–	–	Nc1ncnc2c1c(-c1cc(F)c(O)c(F)c1)nn2Cc1oc2ccc(F)cc2c(=O)c1-c1cccc(F)c1 [Example 127a, 2-((4-amino-3-(3,5-difluoro-4-hydroxyphenyl)-1H-pyrazolo[3,4-d]pyrimidin-1-yl)methyl)-6-fluoro-3-(3-fluorophenyl)-4H-chromen-4-one]
185 to 189	< 50	–	–	CC(c1oc2ccccc2c(=O)c1-c1cccc(F)c1)n1nc(-c2ccccc2CO)c2c(N)ncnc21 (stereo not drawn) [Example 81, 2-(1-(4-amino-3-(2-(hydroxymethyl)phenyl)-1H-pyrazolo[3,4-d]pyrimidin-1-yl)ethyl)-3-(3-fluorophenyl)-4H-chromen-4-one]
270 to 272	50 to 100	–	–	Cc1nn(C)c2cc(-c3nn(C(C)c4oc5ccccc5c(=O)c4-c4cccc(F)c4)c4ncnc(N)c34)ccc12 (stereo not drawn) [Example 170, 2-(1-(4-amino-3-(1,3-dimethyl-1H-indazol-6-yl)-1H-pyrazolo[3,4-d]pyrimidin-1-yl)ethyl)-3-(3-fluorophenyl)-4H-chromen-4-one]
219 to 223	–	< 50	–	Nc1ncnc2c1c(-c1cccc(CO)c1)nn2Cc1oc2ccccc2c(=O)c1-c1ccccc1 [Example 61, 2-((4-amino-3-(3-(hydroxymethyl)phenyl)-1H-pyrazolo[3,4-d]pyrimidin-1-yl)methyl)-3-phenyl-4H-chromen-4-one]
127 to 129	50 to 100	–	–	Nc1ncnc2c1c(-c1cc(O)cc(F)c1)nn2Cc1oc2ccc(F)cc2c(=O)c1-c1cccc(F)c1 [Example 120a, 2-((4-amino-3-(3-fluoro-5-hydroxyphenyl)-1H-pyrazolo[3,4-d]pyrimidin-1-yl)methyl)-6-fluoro-3-(3-fluorophenyl)-4H-chromen-4-one]
122 to 124	50 to 100	–	–	CC(c1oc2ccccc2c(=O)c1-c1cccc(F)c1)n1nc(-c2cc(O)cc(Cl)c2)c2c(N)ncnc21 (stereo not drawn) [Example 86a, 2-(1-(4-amino-3-(3-chloro-5-hydroxyphenyl)-1H-pyrazolo[3,4-d]pyrimidin-1-yl)ethyl)-3-(3-fluorophenyl)-4H-chromen-4-one]
230 to 231	–	< 50	–	CC(c1oc2ccc(Br)cc2c(=O)c1-c1ccccc1)n1cnc2c(N)ncnc21 (stereo not drawn) [Example 21, 2-(1-(6-Amino-9H-purin-9-yl)ethyl)-6-bromo-3-phenyl-4H-chromen-4-one]
238 to 242	–	< 50	–	Nc1ncnc2c1ncn2Cc1oc2ccc(Br)cc2c(=O)c1-c1ccc(F)cc1 [Example 15, 2-[(6-Amino-9H-purin-9-yl)methyl]-6-bromo-3-(4-fluorophenyl)-4H-chromen-4-one]
252 to 255	–	50 to 100	–	CC(c1oc2ccc(F)cc2c(=O)c1-c1cccc(F)c1)n1cnc2c(N)ncnc21 (stereo not drawn) [Example 50, 2-(1-(6-amino-9H-purin-9-yl)ethyl)-6-fluoro-3-(3-fluorophenyl)-4H-chromen-4-one]
197 to 198	–	< 50	–	COc1ccc2oc(Cn3cnc4c(N)ncnc43)c(-c3ccccc3)c(=O)c2c1 [Example 27, 2-((6-Amino-9H-purin-9-yl)methyl)-6-methoxy-3-phenyl-4H-chromen-4-one]
151 to 154	–	< 50	–	O=c1c(-c2ccccc2)c(CNc2ncnc3[nH]cnc23)oc2ccc(Br)cc12 [Example 25, 2-((9H-purin-6-ylamino)methyl)-6-bromo-3-phenyl-4H-chromen-4-one]
198 to 201	< 50	–	–	CC(C)Oc1ccc(F)c(-c2nn(C(C)c3oc4ccccc4c(=O)c3-c3cccc(F)c3)c3ncnc(N)c23)c1 (stereo not drawn) [Example 132, 2-(1-(4-amino-3-(2-fluoro-5-isopropoxyphenyl)-1H-pyrazolo[3,4-d]pyrimidin-1-yl)ethyl)-3-(3-fluorophenyl)-4H-chromen-4-one]
171 to 173	50 to 100	–	–	CC(c1oc2ccccc2c(=O)c1-c1cccc(F)c1)n1nc(C#CCO)c2c(N)ncnc21 (stereo not drawn) [Example 83, 2-(1-(4-amino-3-(3-hydroxyprop-1-ynyl)-1H-pyrazolo[3,4-d]pyrimidin-1-yl)ethyl)-3-(3-fluorophenyl)-4H-chromen-4-one]
246 to 249	< 50	–	–	COc1ccc(-c2nn(C(C)c3oc4ccccc4c(=O)c3-c3cccc(F)c3)c3ncnc(N)c23)cc1Cl (stereo not drawn) [Example 157, 2-(1-(4-amino-3-(3-chloro-4-methoxyphenyl)-1H-pyrazolo[3,4-d]pyrimidin-1-yl)ethyl)-3-(3-fluorophenyl)-4H-chromen-4-one]
208 to 209	–	< 50	–	Cl.O=c1c(-c2ccccc2)c(CN2CCOCC2)oc2ccccc12 [Example 4a, 2-(Morpholinomethyl)-3-phenyl-4H-chromen-4-one hydrochloride]
206 to 208	< 50	–	–	CC(c1oc2ccccc2c(=O)c1-c1cccc(F)c1)n1nc(-c2ccc3cn[nH]c3c2)c2c(N)ncnc21 (stereo not drawn) [Example 80, 2-(1-(4-amino-3-(1H-indazol-6-yl)-1H-pyrazolo[3,4-d]pyrimidin-1-yl)ethyl)-3-(3-fluorophenyl)-4H-chromen-4-one]
253 to 255	–	< 50	–	Nc1ncnc2c1c(-c1cccnc1)nn2Cc1oc2ccccc2c(=O)c1-c1ccccc1 [Example 58, 2-((4-amino-3-(pyridin-3-yl)-1H-pyrazolo[3,4-d]pyrimidin-1-yl)methyl)-3-phenyl-4H-chromen-4-one]
160 to 163	–	< 50	–	CCC(c1oc2ccccc2c(=O)c1-c1ccccc1F)n1cnc2c(N)ncnc21 (stereo not drawn) [Example 35, 2-(1-(6-Amino-9H-purin-9-yl)propyl)-3-(2-fluorophenyl)-4H-chromen-4-one]
223 to 225	–	50 to 100	250 to 500	CCC(c1oc2ccccc2c(=O)c1-c1ccccc1)n1cnc2c(N)ncnc21 (stereo not drawn) [Example 31, 2-(1-(6-Amino-9H-purin-9-yl)propyl)-3-phenyl-4H-chromen-4-one]
214 to 218	–	< 50	–	O=c1c(-c2ccccc2)c(CSc2ncnc3[nH]cnc23)oc2ccc(Br)cc12 [Example 13, 2-[(9H-Purin-6-ylthio)methyl]-6-bromo-3-phenyl-4H-chromen-4-one]
153 to 157	< 50	–	–	CC(C)Oc1cccc(-c2nn(C(C)c3oc4ccccc4c(=O)c3-c3cccc(F)c3)c3ncnc(N)c23)c1 (stereo not drawn) [Example 163, 2-(1-(4-amino-3-(3-isopropoxyphenyl)-1H-pyrazolo[3,4-d]pyrimidin-1-yl)ethyl)-3-(3-fluorophenyl)-4H-chromen-4-one]
253 to 255	–	< 50	–	Cn1c(=O)c2c(ncn2Cc2oc3ccc(Br)cc3c(=O)c2-c2ccccc2)n(C)c1=O [Example 20, 7-[(6-Bromo-4-oxo-3-phenyl-4H-chromen-2-yl)methyl]-1,3-dimethyl-1H-purine-2,6(3H,7H)-dione]
